{"source": "patent US20220315631A1", "about": "“STAPLED BETA-CATENIN LIGANDS” (Ohio State Innovation Foundation, priority 2019, published 2022)", "key": {"β-catenin": {"target": "T1, β-catenin (Homo sapiens, UniProt P35222)", "T1 construct": "cells harboring plasmid pGEX-β-catenin(133-665)52 were grown in LB medium; made in house; host or cells: E. coli BL21 (DE3)", "T1 sequence (P35222 133-665)": "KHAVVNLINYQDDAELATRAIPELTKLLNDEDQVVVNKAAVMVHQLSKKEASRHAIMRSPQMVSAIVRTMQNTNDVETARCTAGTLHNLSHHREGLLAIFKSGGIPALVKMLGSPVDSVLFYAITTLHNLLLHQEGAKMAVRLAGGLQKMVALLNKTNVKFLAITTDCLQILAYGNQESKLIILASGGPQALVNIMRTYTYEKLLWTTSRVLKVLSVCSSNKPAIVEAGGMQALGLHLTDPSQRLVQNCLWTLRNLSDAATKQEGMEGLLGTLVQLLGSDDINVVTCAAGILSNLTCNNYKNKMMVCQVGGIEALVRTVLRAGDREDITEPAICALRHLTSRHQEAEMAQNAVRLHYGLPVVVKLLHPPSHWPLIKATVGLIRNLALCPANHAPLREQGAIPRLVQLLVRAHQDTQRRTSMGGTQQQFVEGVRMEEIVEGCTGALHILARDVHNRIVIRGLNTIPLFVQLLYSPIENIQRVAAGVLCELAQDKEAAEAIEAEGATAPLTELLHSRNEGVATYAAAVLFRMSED", "test": "FP-based competition assay for binding to β-catenin", "procedure": "Samples were transferred into black-on-black 384-well non-binding microplates (Greiner) and FP was measured using a Tecan M1000 Infinite plate reader. The data were analyzed using GraphPad Prism v. 8.0 and normalized to FP values corresponding to fully bound/unbound probe. All binding values reported are the mean±SD of independent experiments.\nProtein Purification. […] Cells were harvested by centrifugation and lysed in lysis buffer (20 mM Tris, pH 8.0, 150 mM NaCl, 2 mM DTT, 1% Triton-X100, 200 mM EDTA, 10 mg/mL PMSF, and 0.2 mg/mL lysozyme) on ice for 20 min, followed by sonication (8 s off, 2 s on, 1 min total, performed twice at 70% amplitude). The homogenate was centrifuged (13,000 g for 30 min at 4° C. and the clear supernatant was loaded onto an equilibrated glutathione-agarose column. After exhaustive washing with wash buffer (20 mM Tris, pH 7.4, 150 mM NaCl, 2 mM DTT), the bound GST-β-catenin was eluted with wash buffer supplemented with 10 mM glutathione, concentrated, and stored at −80° C. in 30% glycerol."}, "Human serum stability": {"test": "Human serum stability", "type": "in vitro ADME", "procedure": "Human Serum Stability. […] After protein precipitation was complete, each aliquot was centrifuged (15000 g, 5 min, 4° C.) and analyzed by RP-HPLC. The percentage of remaining peptide at a given time point was determined by integrating the peak area and compared it to that of the untreated control (100%)."}, "MCF7 cells": {"system": "MCF7 cells", "test": "MTT cell viability assay, MCF7 (Wnt-independent) cells", "type": "cell-based", "conditions": "up to 20 μM", "procedure": "(§1) MTT Assay. SW480 (Wnt-addicted) and MCF7 (Wnt-independent) cells were seeded in 96-well plate with 3×10^3 cells per well, and allowed to grow overnight. […] After that, 10 μL of an MTT stock solution (5 mg/mL) was added into each well and the plate was incubated at 37° C. for 4 h. 100 μL of SDS-HCl solubilizing solution was added and the plate was incubated at 37° C. overnight. The absorbance of the formazan product formed was measured at 570 nm on a Tecan microtiter plate reader. Cells were incubated with serially diluted compounds for 72 hours in the presence of 10% FBS. Data reported represent the mean±SD of 3 independent experiments.\n(§2) Cell Viability Assay. Cell viability was determined using the MTT assay. […] Trypsin was neutralized with the addition of warm DPBS and cells were pelleted down at 200 g for 5 min at 4° C. […] Com-pounds were serially diluted in DPBS with standardized DMSO concentration (0.5% v/v) and added to each well. […] After that, 10 μL of MTT solution was added to each well, followed by incubation for 4 h at 37° C., 5% CO2. […] The next day, A565 was determined using a Tecan M1000 Infinite plate reader and absorbance values were standardized against cell-free wells and normalized to untreated control cells. Data was analyzed using GraphPad Prism v. […]"}, "SW480 cells": {"system": "SW480 cells", "type": "cell-based", "procedure": "as §1, §2"}, "GST-β-catenin, P35222": {"target": "T2, GST-β-catenin, P35222", "T2 chain": "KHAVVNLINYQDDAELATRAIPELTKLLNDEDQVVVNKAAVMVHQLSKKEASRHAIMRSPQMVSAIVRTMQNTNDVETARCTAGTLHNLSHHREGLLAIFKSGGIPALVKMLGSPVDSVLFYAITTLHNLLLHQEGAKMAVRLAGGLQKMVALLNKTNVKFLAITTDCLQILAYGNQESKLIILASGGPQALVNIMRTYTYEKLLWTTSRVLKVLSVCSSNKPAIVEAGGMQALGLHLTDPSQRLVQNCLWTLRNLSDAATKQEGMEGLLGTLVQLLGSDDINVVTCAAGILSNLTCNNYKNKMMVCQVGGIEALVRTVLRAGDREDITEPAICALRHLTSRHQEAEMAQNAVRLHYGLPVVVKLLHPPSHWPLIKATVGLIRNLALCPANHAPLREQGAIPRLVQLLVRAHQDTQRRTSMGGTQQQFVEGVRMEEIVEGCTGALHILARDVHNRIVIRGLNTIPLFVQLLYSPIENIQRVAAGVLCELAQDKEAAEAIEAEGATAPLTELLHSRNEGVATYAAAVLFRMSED", "test": "fluorescence polarization; 10 nM FAM-peptide 1 against serial dilutions of GST-β-catenin"}}, "note": "Positions of bridges follow the written chain, without caps; N, C: chain ends. Non-standard residues stand in square brackets, D forms with d. Residues, ends and D or L forms follow the SMILES beside them. Chains are numbered I, II in the order given. 2Nal = N[C@@H](Cc1ccc2ccccc2c1)C(=O)O; Dap = NC[C@H](N)C(=O)O; AEEA = NCCOCCOCC(=O)O"}
{"molecule": "CC[C@H](C)[C@@H]1NC(=O)[C@@H](NC(=O)[C@H](CCC(=O)O)NC(=O)[C@@H]2CCCN2C(=O)[C@H](Cc2ccc(O)cc2)NC(=O)CNC(=O)CNC(C)=O)CC(=O)NCCCC[C@@H](C(=O)N[C@@H](Cc2c[nH]cn2)C(=O)N[C@@H](CC(C)C)C(=O)N[C@@H](CCC(N)=O)C(=O)N[C@@H](CCCNC(=N)N)C(=O)N[C@H](C(=O)N[C@H](C(=O)N[C@@H](CC(C)C)C(=O)NCCC(N)=O)[C@@H](C)CC)C(C)(C)C)NC(=O)[C@H](CC(=O)O)NC(=O)[C@H](CC(C)C)NC1=O", "note": "[Peptide 9, Ac-GGYPEDILDKHLQRZIL(β-Ala)-NH2]", "values": [{"measurement": "IC50", "setting": "β-catenin; IC50, competition with FAM-labeled peptide 1 (10 nM), 50 nM GST-β-catenin, read-out: KD or IC50", "value": "305 ± 19", "unit": "nM"}, {"measurement": "half-life at 100 μM", "setting": "Human serum stability; human, human serum diluted 1:4 in DPBS, human serum, read-out: serum t1/2 (converted)", "value": "~12", "unit": "h"}]}
{"molecule": "CC[C@H](C)[C@@H]1NC(=O)[C@@H](NC(=O)[C@H](CCC(=O)O)NC(=O)[C@@H]2CCCN2C(=O)[C@H](Cc2ccc(O)cc2)NC(=O)CNC(=O)CNC(C)=O)CC(=O)NCCCC[C@@H](C(=O)N[C@@H](Cc2c[nH]cn2)C(=O)N[C@@H](CC(C)C)C(=O)N[C@@H](CCC(N)=O)C(=O)N[C@@H](CCCNC(=N)N)C(=O)N[C@H](C(=O)N[C@H](C(=O)N[C@@H](CC(C)C)C(=O)NCCOCCOCC(=O)NCCOCCOCC(=O)N[C@@H](CNC(=O)[C@H](CCC(N)=O)NC(=O)[C@@H]2CCCN2C(=O)[C@@H]2CCCN2C(=O)[C@H](CCCNC(=N)N)NC(=O)[C@H](CCCNC(=N)N)NC(=O)[C@H](CCCNC(=N)N)NC(=O)[C@H](CCC(N)=O)NC(=O)[C@H](CCCNC(=N)N)NC(=O)[C@H](CCCNC(=N)N)NC(=O)[C@H](CCCCN)NC(=O)[C@H](CCCCN)NC(=O)[C@H](CCCNC(=N)N)NC(=O)CN)C(N)=O)[C@@H](C)CC)C(C)C)NC(=O)[C@H](CC(=O)O)NC(=O)[C@H](CC(C)C)NC1=O", "note": "[peptide 4]", "values": [{"measurement": "effect on MCF7 cell viability", "setting": "MCF7 cells", "value": "reduced the viability of MCF7 cells"}]}
{"molecule": "CC[C@H](C)[C@@H]1NC(=O)[C@@H](NC(=O)[C@H](CCC(=O)O)NC(=O)[C@@H]2CCCN2C(=O)[C@H](Cc2ccc(O)cc2)NC(=O)CNC(=O)CNC(C)=O)CC(=O)NCCCC[C@@H](C(=O)N[C@@H](Cc2c[nH]cn2)C(=O)N[C@@H](CC(C)C)C(=O)N[C@@H](CCC(N)=O)C(=O)N[C@@H](CCCNC(=N)N)C(=O)N[C@H](C(=O)N[C@H](C(=O)N[C@@H](CC(C)C)C(=O)NCCOCCOCC(=O)NCCOCCOCC(=O)N[C@@H](CNC(=O)[C@H](CCCNC(=N)N)NC(=O)[C@H](CCCNC(=N)N)NC(=O)[C@H](CCCNC(=N)N)NC(=O)[C@H](CCCNC(=N)N)NC(=O)[C@H](CCCNC(=N)N)NC(=O)[C@H](CCCNC(=N)N)NC(=O)[C@H](CCCNC(=N)N)NC(=O)[C@H](CCCNC(=N)N)NC(=O)[C@@H](N)CCCNC(=N)N)C(N)=O)[C@@H](C)CC)C(C)C)NC(=O)[C@H](CC(=O)O)NC(=O)[C@H](CC(C)C)NC1=O", "note": "[peptide 5]", "values": [{"measurement": "effect on MCF7 cell viability", "setting": "MCF7 cells", "value": "reduced the viability of MCF7 cells"}]}
{"molecule": "CC[C@H](C)[C@@H]1NC(=O)[C@@H](NC(=O)[C@H](CCC(=O)O)NC(=O)[C@@H]2CCCN2C(=O)[C@H](Cc2ccc(O)cc2)NC(C)=O)CC(=O)NCCCC[C@@H](C(=O)N[C@@H](Cc2c[nH]cn2)C(=O)N[C@@H](CC(C)C)C(=O)N[C@@H](CCC(N)=O)C(=O)N[C@@H](CCCNC(=N)N)C(=O)N[C@H](C(=O)N[C@H](C(=O)N[C@@H](CC(C)C)C(N)=O)[C@@H](C)CC)C(C)(C)O)NC(=O)[C@H](CC(=O)O)NC(=O)[C@H](CC(C)C)NC1=O", "note": "[Peptide 37]", "values": [{"measurement": "binding affinity for β-catenin compared to peptide 9", "setting": "β-catenin; relative to peptide 9", "value": "identical"}, {"measurement": "serum stability compared to peptide 9", "setting": "Human serum stability; relative to peptide 9", "value": "identical"}]}
{"molecule": "CC[C@H](C)[C@@H]1NC(=O)[C@@H](NC(=O)[C@H](CCC(=O)O)NC(=O)[C@@H]2CCCN2C(=O)[C@H](Cc2ccc(O)cc2)NC(=O)CNC(=O)CNC(C)=O)CC(=O)NCCCC[C@@H](C(=O)N[C@@H](Cc2c[nH]cn2)C(=O)N[C@@H](CC(C)C)C(=O)N[C@@H](CCC(N)=O)C(=O)N[C@@H](CCCNC(=N)N)C(=O)N[C@H](C(=O)N[C@H](C(=O)N[C@@H](CC(C)C)C(=O)NCCOCCOCC(=O)NCCOCCOCC(=O)N[C@@H](CNC(=O)CC[C@@H]2NC(=O)[C@@H](CCCNC(=N)N)NC(=O)[C@H](CCCNC(=N)N)NC(=O)[C@@H](CCCNC(=N)N)NC(=O)[C@H](CCCNC(=N)N)NC(=O)[C@H](Cc3ccc4ccccc4c3)NC(=O)[C@@H](Cc3ccccc3)NC2=O)C(N)=O)[C@@H](C)CC)C(C)C)NC(=O)[C@H](CC(=O)O)NC(=O)[C@H](CC(C)C)NC1=O", "note": "[peptide 2] (I: Ac-GGYPEDILDKHLQRVIL[AEEA][AEEA][Dap]-NH2 / II: cyclo([2Nal]R[dR]R[dR]E[dF]); lactam I:6-I:10; amide I:20-II:6)", "values": [{"measurement": "EC50", "setting": "SW480 cells; MTT assay, read-out: EC50, viability / anti-proliferative activity against SW480 cells", "value": 3700, "unit": "nM"}]}
{"molecule": "CC[C@H](C)[C@@H]1NC(=O)[C@@H](NC(=O)[C@H](CCC(=O)O)NC(=O)[C@@H]2CCCN2C(=O)[C@H](Cc2ccc(O)cc2)NC(=O)CNC(=O)CNC(C)=O)CC(=O)NCCCC[C@@H](C(=O)N[C@@H](CC(=O)O)C(=O)N[C@@H](CC(C)C)C(=O)N[C@@H](CCC(N)=O)C(=O)N[C@@H](CCCNC(=N)N)C(=O)N[C@H](C(=O)N[C@@H](C)C(=O)N[C@@H](CC(C)C)C(=O)NCCOCCOCC(=O)NCCOCCOCC(=O)N[C@@H](CNC(=O)CC[C@@H]2NC(=O)[C@@H](CCCNC(=N)N)NC(=O)[C@H](CCCNC(=N)N)NC(=O)[C@@H](CCCNC(=N)N)NC(=O)[C@H](CCCNC(=N)N)NC(=O)[C@H](Cc3ccc4ccccc4c3)NC(=O)[C@@H](Cc3ccccc3)NC2=O)C(N)=O)C(C)C)NC(=O)[C@H](Cc2c[nH]cn2)NC(=O)[C@H](CC(C)C)NC1=O", "note": "[peptide 3] (I: Ac-GGYPEDILHKDLQRVAL[AEEA][AEEA][Dap]-NH2 / II: cyclo([2Nal]R[dR]R[dR]E[dF]); lactam I:6-I:10 (inferred); amide I:20-II:6 (inferred); ring closure inferred)", "values": [{"measurement": "lower affinity for β-catenin than peptide 2", "setting": "β-catenin; relative to peptide 2", "value": "~10", "unit": "fold"}, {"measurement": "viability of SW480 cells", "setting": "SW480 cells; at the highest concentration tested (20 μM)", "value": "only slight decreases"}]}
{"molecule": "GGYPECILDCHLQRVIL (modifications not checked)", "note": "[peptide 1]", "values": [{"measurement": "Kd", "setting": "GST-β-catenin, P35222", "value": 18, "unit": "nM"}]}
